According to publication PMC9506485, “Synthesis and Structure–Activity Relationships for the Anti-Mycobacterial Activity of 3-Phenyl-N-(Pyridin-2-ylmethyl)Pyrazolo[1,5-a]Pyrimidin-7-Amines” (Pharmaceuticals, 2022):
In brackets after ≈: the same amount, converted by molar mass.

Tests used:
[1] = test system: Mycobacterium tuberculosis (strain H37Rv); experiment: LORA minimum inhibitory concentration assay (low-oxygen/non-replicating); conditions: M.tb H37Rv, 90% inhibition of growth
hERG = hERG (Homo sapiens, UniProt Q12809); experiment: hERG channel blockade, manual patch clamp; format: cell-based; conditions: cloned hERG potassium channels, room temperature; for inhibition at 0.3 µM: read-out: hERG % inhib. at 0.3 µM; for inhibition at 1 µM: read-out: hERG % inhib. at 1.0 µM
Experimental: Selected compounds were evaluated for hERG channel blockade (Table 4) by WuXi AppTec (Shanghai) Co., Ltd. This was carried out using cloned hERG potassium channels according to their standard manual patch clamp method. Two concentrations (0.3 and 1.0 µM) were tested (at room temperature), and at least three replicates were obtained for each. Amitryptyline was used as a standard.

[2] = Microsomal stability, mouse liver microsomes; format: in vitro ADME; conditions: for CLint scaled at 1 μM / half-life at 1 μM: CD-1, mouse, microsomes, pH 7.4; for microsomal CLint at 1 μM: CD-1, pH 7.4, mouse liver microsomes, read-out: MLM Clint(mic)
Experimental: (§1) Assays were performed by WuXi AppTec (Shanghai) Co., Ltd. The test compounds (Table 4) (at 1 μM) were incubated at 37 °C with liver microsomes from human or CD-1 mice in the presence of a NADPH regenerating system and phosphate buffer (100 mM, pH 7.4) at 0.5 mg/mL microsomal protein (the positive controls were testosterone, propafenone, and diclofenac). Samples were removed at time intervals of 0, 5, 10, 20, 30, and 60 min and immediately mixed with cold CH3CN (containing 0.1 μg/mL of tolbutamide as an internal standard) and then centrifuged prior to analysis by LCMS/MS.

[3] = Microsomal stability, human liver microsomes; format: in vitro ADME; conditions: pH 7.4; for microsomal CLint at 1 μM: human liver microsomes, read-out: HLM Clint(mic)
Experimental: as §1

[4] = test system: VERO green monkey kidney cells; experiment: VERO mammalian cell toxicity assay; format: cell-based; conditions: Chlorocebus sabaeus; inhibition of growth of VERO green monkey kidney epithelial cells
[5] = test system: Mycobacterium tuberculosis (strain H37Rv); experiment: MABA minimum inhibitory concentration assay (aerobic/replicating); format: cell-based; conditions: M.tb H37Rv; for MIC90: Mycobacterium tuberculosis, aerobic/replicating, 90% inhibition of growth
[6] = human/mouse liver microsomes not distinguished, read-out: T½ values (microsomal stability)

Sequence of hERG (Q12809 whole entry): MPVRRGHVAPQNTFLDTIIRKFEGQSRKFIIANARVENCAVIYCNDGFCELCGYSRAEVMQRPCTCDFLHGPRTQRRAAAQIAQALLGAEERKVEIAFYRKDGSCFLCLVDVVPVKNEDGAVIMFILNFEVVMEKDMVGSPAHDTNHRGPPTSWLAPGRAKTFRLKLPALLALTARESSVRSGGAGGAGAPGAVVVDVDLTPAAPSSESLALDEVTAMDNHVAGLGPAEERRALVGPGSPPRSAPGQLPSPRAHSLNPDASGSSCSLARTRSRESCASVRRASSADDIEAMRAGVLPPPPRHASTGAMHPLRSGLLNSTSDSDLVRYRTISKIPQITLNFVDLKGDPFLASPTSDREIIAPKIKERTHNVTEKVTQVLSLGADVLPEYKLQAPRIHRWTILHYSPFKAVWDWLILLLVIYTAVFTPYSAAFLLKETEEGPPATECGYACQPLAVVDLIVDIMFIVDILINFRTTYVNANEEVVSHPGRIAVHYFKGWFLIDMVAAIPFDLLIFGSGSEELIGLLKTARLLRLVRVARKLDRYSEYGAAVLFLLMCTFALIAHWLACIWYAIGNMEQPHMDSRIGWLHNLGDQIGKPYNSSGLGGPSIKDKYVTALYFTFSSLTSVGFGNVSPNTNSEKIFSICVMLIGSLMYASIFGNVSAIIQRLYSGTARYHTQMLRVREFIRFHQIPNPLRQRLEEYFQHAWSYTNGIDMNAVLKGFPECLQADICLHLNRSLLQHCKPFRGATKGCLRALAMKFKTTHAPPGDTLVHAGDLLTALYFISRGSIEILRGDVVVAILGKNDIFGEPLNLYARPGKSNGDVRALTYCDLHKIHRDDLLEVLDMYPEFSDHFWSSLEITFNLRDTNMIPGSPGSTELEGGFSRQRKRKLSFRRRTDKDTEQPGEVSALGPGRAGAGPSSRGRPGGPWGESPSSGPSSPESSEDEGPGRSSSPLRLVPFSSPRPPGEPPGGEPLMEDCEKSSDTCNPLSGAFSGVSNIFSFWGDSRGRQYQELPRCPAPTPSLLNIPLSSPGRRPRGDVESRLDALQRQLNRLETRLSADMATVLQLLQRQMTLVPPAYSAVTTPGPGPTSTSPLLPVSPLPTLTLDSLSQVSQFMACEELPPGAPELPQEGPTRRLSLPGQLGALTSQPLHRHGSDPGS

| SMILES | MIC90 LORA [1] [µg/mL] | inhibition at 0.3 µM (hERG) [%] | inhibition at 1 µM (hERG) [%] | CLint scaled at 1 μM [2] [mL/min/kg] | half-life at 1 μM [2] [h] | microsomal CLint at 1 μM [2] [µL/min/mg] | CLint scaled at 1 μM ([3]; human, microsomes) [mL/min/kg] | half-life at 1 μM ([3]; human, microsomes) [h] | microsomal CLint at 1 μM [3] [µL/min/mg] | IC50 [4] [µg/mL] | melting point [°C] | MIC90 [5] [µg/mL] | half-life at 1 μM [3, 6] [h] | anti-mycobacterial activity in words ([5]; MABA/LORA) |
| --- | --- | --- | --- | --- | --- | --- | --- | --- | --- | --- | --- | --- | --- | --- |
| COc1ccnc(CNc2cc(-c3ccccc3)nc3c(-c4ccc(F)cc4)cnn23)c1 [Compound 63, 3-(4-Fluorophenyl)-N-((4-methoxypyridin-2-yl)methyl)-5-phenylpyrazolo[1,5-a]pyrimidin-7-amine] | 0.5 (≈ 1.18 µM) | 2.3 | 4.6 | < 38 | > 2.42 | < 9.6 | < 8.6 | > 2.42 | < 9.6 | > 32 | 205 to 208 | 1.9 (≈ 4.47 µM) |  |  |
| Fc1ccc(-c2cnn3c(NCc4ccccn4)cc(-c4ccccc4F)nc23)cc1 [Compound 28, 5-(2-Fluorophenyl)-3-(4-fluorophenyl)-N-(pyridin-2-ylmethyl)pyrazolo[1,5-a]pyrimidin-7-amine] | 0.22 (≈ 0.532 µM) | 17 | 36 | 113 | 0.817 | 29 | 18 | 1.15 | 20 | > 32 |  | 1.79 (≈ 4.33 µM) | < 1.42 |  |
| Fc1ccc(-c2cnn3c(NCc4ccccn4)cc(-c4ccoc4)nc23)cc1 [Compound 44, 3-(4-Fluorophenyl)-5-(furan-3-yl)-N-(pyridin-2-ylmethyl)pyrazolo[1,5-a]pyrimidin-7-amine] | 0.16 (≈ 0.415 µM) | 4 | 14 | 570 | 0.167 | 144 | 66 | 0.317 | 74 | > 32 |  | 0.96 (≈ 2.49 µM) | < 1.42 |  |
| Fc1ccc(-c2cnn3c(NCc4ccccn4)cc(-c4ccsc4)nc23)cc1 [Compound 42, 3-(4-Fluorophenyl)-N-(pyridin-2-ylmethyl)-5-(thiophen-3-yl)pyrazolo[1,5-a]pyrimidin-7-amine] | 0.22 (≈ 0.548 µM) | 9 | 24 | 298 | 0.3 | 75 | 43 | 0.483 | 47 | > 32 |  | 1.4 (≈ 3.49 µM) | < 1.42 |  |
| CC(C)(C)c1ccc(-c2cc(NCc3ccccn3)n3ncc(-c4ccc(F)cc4)c3n2)cc1 [Compound 36, 5-(4-(Tert-butyl)phenyl)-3-(4-fluorophenyl)-N-(pyridin-2-ylmethyl)pyrazolo[1,5-a]pyrimidin-7-amine] | 1.9 (≈ 4.21 µM) | 0 | 0 | < 38 | > 2.42 | < 9.6 | < 8.6 | > 2.42 | < 9.6 | > 32 |  | 1.7 (≈ 3.76 µM) |  |  |
| Fc1ccc(-c2cnn3c(NCc4ccccn4)cc(-c4ccccc4)nc23)cc1 [Compound 18, 3-(4-Fluorophenyl)-5-phenyl-N-(pyridin-2-ylmethyl)pyrazolo[1,5-a]pyrimidin-7-amine] | 0.40 (≈ 1.01 µM) | 0.3 | 5 | 99 | 0.933 | 25 | 12 | 1.75 | 13 | > 32 | 191 to 193 | 3.8 (≈ 9.61 µM) | < 1.42 | active |
| Fc1ccc(-c2cnn3c(NCc4ccc(F)cn4)cc(-c4ccccc4)nc23)cc1 [Compound 52, 3-(4-Fluorophenyl)-N-((5-fluoropyridin-2-yl)methyl)-5-phenylpyrazolo[1,5-a]pyrimidin-7-amine] | 3.4 (≈ 8.22 µM) | 0.8 | 11 | 50.3 | 1.82 | 12.7 | 11 | 1.81 | 13 | > 32 | 118 to 120 | 3.7 (≈ 8.95 µM) |  |  |
| COc1ccc(-c2cc(NCc3ccccn3)n3ncc(-c4ccc(F)cc4)c3n2)cc1 [Compound 34, 3-(4-Fluorophenyl)-5-(4-methoxyphenyl)-N-(pyridin-2-ylmethyl)pyrazolo[1,5-a]pyrimidin-7-amine] | 0.25 (≈ 0.588 µM) | 0 | 1 | 88 | 1.05 | 22 | 16 | 1.28 | 18 | > 32 |  | 1.5 (≈ 3.53 µM) | < 1.42 |  |
| Fc1ccc(-c2cnn3c(NCc4cc(N5CCCCC5)ccn4)cc(-c4ccccc4)nc23)cc1 [Compound 68, 3-(4-Fluorophenyl)-5-phenyl-N-((4-(piperidin-1-yl)pyridin-2-yl)methyl)pyrazolo[1,5-a]pyrimidin-7-amine] | 0.85 (≈ 1.78 µM) | 19 | 36 | 92 | 1 | 23 | 11 | 1.87 | 12 | > 32 | 189 to 191 | 0.96 (≈ 2.01 µM) |  |  |
| Fc1ccc(-c2cnn3c(NCc4ccccn4)cc(-c4cccnc4)nc23)cc1 [Compound 39, 3-(4-Fluorophenyl)-N-(pyridin-2-ylmethyl)-5-(pyridin-3-yl)pyrazolo[1,5-a]pyrimidin-7-amine] | 0.30 (≈ 0.757 µM) | 16 | 46 | 445 | 0.2 | 112 | 57 | 0.367 | 63 | > 32 |  | 2.3 (≈ 5.8 µM) | < 1.42 |  |
| Fc1ccc(-c2cnn3c(NCc4ccccn4)cc(-c4cccs4)nc23)cc1 [Compound 41, 3-(4-Fluorophenyl)-N-(pyridin-2-ylmethyl)-5-(thiophen-2-yl)pyrazolo[1,5-a]pyrimidin-7-amine] | 0.36 (≈ 0.897 µM) | 0 | 0 | 163 | 0.567 | 41 | 75 | 0.283 | 83 | > 32 |  | 0.99 (≈ 2.47 µM) | < 1.42 |  |
| Fc1ccc(-c2cnn3c(NCc4ccccn4)cc(-c4ccc(OC(F)(F)F)cc4)nc23)cc1 [Compound 38, 3-(4-Fluorophenyl)-N-(pyridin-2-ylmethyl)-5-(4-(trifluoromethoxy)phenyl)pyrazolo[1,5-a]pyrimidin-7-amine] | 1.1 (≈ 2.29 µM) | 2 | 2 | < 38 | > 2.42 | < 9.6 | 15 | 1.43 | 16 | > 32 |  | 1.9 (≈ 3.96 µM) | < 1.42 |  |
| CC(C)c1ccc(-c2cc(NCc3ccccn3)n3ncc(-c4ccc(F)cc4)c3n2)cc1 [Compound 35, 3-(4-Fluorophenyl)-5-(4-isopropylphenyl)-N-(pyridin-2-ylmethyl)pyrazolo[1,5-a]pyrimidin-7-amine] | 1.0 (≈ 2.29 µM) | 1 | 1 | < 38 | > 2.42 | < 9.6 | < 8.6 | > 2.42 | < 9.6 | > 32 |  | 1.8 (≈ 4.11 µM) |  |  |
| Fc1ccc(-c2cnn3c(NCc4ccccn4)cc(C4CC4)nc23)cc1 [Compound 25, 5-Cyclopropyl-3-(4-fluorophenyl)-N-(pyridin-2-ylmethyl)pyrazolo[1,5-a]pyrimidin-7-amine] | 0.20 (≈ 0.556 µM) | 8 | 19 | 424 | 0.217 | 107 | 68 | 0.3 | 76 | 23.4 (≈ 65.1 µM) |  | 1.54 (≈ 4.28 µM) | < 1.42 |  |
